Assay results taken from patent US11771717B2, “Applications of pair-production for improved radiotherapy” (Henry Ford Health System, priority 2017, dated 2023).
Read-outs that look alike come from different tables or passages of the source.

Test system: A549 human lung cancer cells
Settings: for decreased clonogenic survival at 18 MV compared to 6 MV: Example 2 conclusion; for more cell killing at 18 MV vs 6 MV: Example 3 conclusion; for increased cell killing at 18 MV compared to 6 MV, on average: cisplatin 4 μg/ml, carboplatin 12 μg/ml (FIG. 4); for cell survival decreased using 18 MV photons compared to 6 MV photons, average of 3 experiments: FIG. 2 and FIG. 4, 2 hours before irradiation with 2 Gy, 100 μM sodium phosphotungstate, 4 μg/ml cisplatin, 12 μg/ml carboplatin
Protocol: Detailed Methods: The human lung cancer cell line A549 was maintained in tissue culture using standard techniques. A 70% confluent T25 tissue culture flask of A549 in exponential growth phase was trypsinized with 2 mL of 0.05% trypsin solution and deactivated with 3 mL DMEM to produce a 5 mL single cell-suspension. One milliliter of this cell solution was added to 10 mL of DMEM and vortexed to produce a homogenous diluted single cell suspension. Seven 6-well tissue culture plates were prepared with 3 mL of DMEM per well. […] These plates were incubated at 37° C. for 24 hours to allow the cells to settle and the tissue culture wells. The media was then removed from each plate and replaced with: DMEM in 3 plates as non-metal controls (250 cells per well), 100 μM sodium phosphotungstate hydrate DMEM in 2 plates (250 cells per well), 1 mM sodium tungstate dihydrate DMEM in 2 plates (250 cells per well), and 4 μg/mL cisplatin DMEM in 2 plates (1000 cells per well). The media with or without metal compounds was left in the wells to incubate for 1-2 hours prior to irradiation. Six plates were irradiated using a linear accelerator (Varian Trilogy; Varian Corp., Palo Alto, Calif.): one plate each of the DMEM, sodium phosphotungstate hydrate, sodium tungstate dihydrate, and cisplatin were given 209 MU of 6 MV X-rays (2 Gy) and the remaining plates of DMEM, sodium phosphotungstate hydrate, sodium tungstate dihydrate, and cisplatin were irradiated with 239 MU of 18 MV X-rays (2 Gy). The remaining seventh plate was not irradiated and used to calculate plating efficiency of A549. The seven plates then had all media replaced with normal DMEM immediately following irradiation and were incubated for 10 days. When A549 colonies were seen to be equal to or greater than 50 cells by microscopy, the seven plates were stained with crystal violet and counted. The same experiment above was conducted for A549 cells in DMEM media alone with administration of sodium phosphotungstate hydrate after irradiation. Two identical plates were prepared as described above and these were irradiated at 6 or 18 MV in DMEM. The media was removed after irradiation and replaced with 100 μM sodium phosphotungstate hydrate media for one hour before again being replaced with DMEM and incubated for 10 days.
A549 lung cancer cells were used to create nine 6-well plates under standard methods. The media was then removed from each plate and replaced with: DMEM in 3 plates as non-metal controls (250 cells per well), 100 μM sodium phosphotungstate hydrate DMEM in 2 plates (250 cells per well), 12 μg/ml carboplatin DMEM in 2 plates (1000 cells per well), and 4 μg/ml cisplatin DMEM in 2 plates (1000 cells per well) and incubated for 2-4 hours prior to irradiation. Eight plates were irradiated on a linear accelerator: one plate each of the DMEM, tungsten, carboplatin, and cisplatin was given 2 Gy of 6 MV X-rays and one of each was irradiated with 2 Gy of 18 MV X-rays. The remaining plate was not irradiated and used to calculate plating efficiency of A549. The nine plates were incubated for 10 days, stained with crystal violet, and colonies were counted.
In vitro studies were conducted with the A549 cell line, a human lung adenocarcinoma cultured from the tumor of a person by Giard in 1972. Clonogenic survival studies were done without irradiation or metal compound to measure plating efficiency. Cells were then exposed to 100 μM tungsten compound for 4 hours and seeded into 6 well plates. […] 4 identical plates of cells were then created, 2 containing 100 μM tungsten metal and 2 without metal.

[1] = Example 2, 2 Gy of 6 MV X-rays, compound in media 1-2 hours prior to irradiation (100 μM sodium phosphotungstate hydrate, 1 mM sodium tungstate dihydrate, 4 μg/mL cisplatin)
[2] = Example 2, 2 Gy of 18 MV X-rays, compound in media 1-2 hours prior to irradiation (100 μM sodium phosphotungstate hydrate, 1 mM sodium tungstate dihydrate, 4 μg/mL cisplatin)
[3] = Example 3, 2 Gy of 6 MV X-rays, incubated 2-4 hours prior to irradiation (100 μM tungsten, 4 μg/ml cisplatin, 12 μg/ml carboplatin)
[4] = Example 3, 2 Gy of 18 MV X-rays, incubated 2-4 hours prior to irradiation (100 μM tungsten, 4 μg/ml cisplatin, 12 μg/ml carboplatin)

Compound	average colonies [1]	survival [1]	average colonies [2]	survival [2]	18 MV result compared to 6 MV, in words (Example 2, 18 MV vs 6 MV, 2 Gy)	decreased clonogenic survival at 18 MV compared to 6 MV (2 Gy)	colonies/well [3]	survival [3]	colonies/well [4]	survival [4]	more cell killing at 18 MV vs 6 MV (2 Gy)	increased cell killing at 18 MV compared to 6 MV, on average (Example 4)	cell survival decreased using 18 MV photons compared to 6 MV photons, average of 3 experiments	survival after drug administration without irradiation (100 μM for 4 hours, no irradiation)	cell killing, plates exposed to tungsten after irradiation (Example 2, 100 μM for one hour after irradiation, at either 6 or 18 MV)	more cell killing compared to 6 MV with or without metal and 18 MV without metal (Example 4, 100 μM, 2 Gy of 18 MV photons)	more cell killing compared to 6 MV (Example 2, 18 MV vs 6 MV, 2 Gy, 1 mM)
N.N.[Cl][Pt][Cl] [cisplatin, reference compound]	54 colonies	13%	29 colonies	7%	half of that at 6 MV	approximately 50%	54 colonies/well	13%	29 colonies/well	7%	37%	approximately 37%	approximately 37%	–	–	–	–
sodium phosphotungstate hydrate	68 colonies	66%	35 colonies	34%	double cell kill	approximately 50%	68 colonies/well	66%	35 colonies/well	34%	approximately 50%	–	48%	greater than 95%	approximately 65%	approximately 50%	–
N.N.O=C([O-])C1(C(=O)[O-])CCC1.[Pt+2] [carboplatin, reference compound]	–	–	–	–	–	–	64 colonies/well	16%	40 colonies/well	10%	37%	approximately 37%	approximately 37%	–	–	–	–
O.O.[Na+].[Na+].[O]=[W](=[O])([O-])[O-] [sodium tungstate dihydrate]	70 colonies	68%	21 colonies	20%	–	~70%	–	–	–	–	–	–	–	–	–	–	approximately 70%
